Data reported in the NIST ThermoML archive (doi:10.1016/j.fluid.2008.11.014).
Numbers after ± are expanded uncertainties.

Columns and labels:
[1] = 298.2 K; 101.33 kPa; Liquid; Vibrating tube method
[2] = refractive index (Na D-line) (dimensionless); conditions: 298.2 K; 101.33 kPa; Liquid; Standard Abbe refractometry

CCCO [propan-1-ol]
mass density [1]: 799.62 ± 0.24 kg/m3
refractive index [2]: 1.3835 ± 0.0007

CC(C)OC(C)C [diisopropyl ether]
mass density [1]: 718.79 ± 0.3 kg/m3
refractive index [2]: 1.3653 ± 0.0007
